Values quoted from earlier work in patent publication US20220409591A1, “Pharmaceutical Formulations for Managing Uric Acid Content in Human Body” (ZYCIE TECHNOLEGAL LLP, priority 2019, published 2022).

Key:
[1] = known

Cc1nc(-c2ccc(OCC(C)C)c(C#N)c2)sc1C(=O)O [febuxostat, 2-[3-cyano-4-(2-methylpropoxy)phenyl]-4-methylthiazole-5-carboxylic acid]
bioavailability [1]: more than 80% | mean terminal elimination half-life [1]: 5 to 8 h | BCS class (poorly water-soluble drug): BCS Class II
